Assay results taken from patent US20150258192A1, “COMPOSITIONS AND METHODS FOR PREVENTING OR TREATING CHRONIC LUNG ALLOGRAFT DYSFUNCTION (CLAD) AND IDIOPATHIC PULMONARY FIBROSIS (IPF)” (priority 2014, published 2015).
No end group written: not given here.

Key:
CK1γ1(h) = CK1γ1(h) (Homo sapiens, UniProt Q9HCP0); assay: Kinase Profiling Assay; type: biochemical; conditions: peptide 100 μM
Procedure, shortened: (§1)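 Scintillation counting quantifies radiolabeled, positively charged substrate retained on a negatively charged filter after kinase reaction with labeled ATP; inhibitor peptide present.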

CLK2(h) = CLK2(h) (Homo sapiens, UniProt P49760); assay: Kinase Profiling Assay; type: biochemical; conditions: peptide 100 μM
Procedure, shortened: as §1

Plk1(h) = Plk1(h) (Homo sapiens, UniProt P53350); assay: Kinase Profiling Assay; type: biochemical; conditions: peptide 100 μM
Procedure, shortened: as §1

FGFR2(N549H)(h) = FGFR2(N549H)(h) (Homo sapiens, UniProt P21802, N549H); assay: Kinase Profiling Assay; type: biochemical; conditions: peptide 100 μM
Procedure, shortened: as §1

[1] = molecular target: T1, human recombinant MK2 (h) (Homo sapiens, UniProt P49137); assay: Radiometric IC50 Determination; type: biochemical; conditions: 10-point curve; ATP within 15 μM of apparent Km
T1 construct: purchased Millipore (IC50 Profiler Express service)
Protocol: The IC50 value was estimated from a 10-point curve of one-half log dilutions. Peptide was supplied in dimethyl sulfoxide (DMSO). Specifically, human recombinant MK2 (h) (5-10 mU) was incubated with 50 mM sodium 3-glycerophosphate (pH=7.5), 0.1 mM EGTA, 30 μM of substrate peptide ([…]; SEQ ID NO: 21), 10 mM magnesium acetate, and 90 uM γ-^33P-ATP (final volume of 25 μL) for 40 minutes at room temperature. Then, the reaction was stopped with 3% phosphoric acid. 10 μL of this mixture was spotted onto a P30 filtermat and washed three times for five minutes with 75 mM phosphoric acid and once with methanol. Finally, the membrane was dried and a scintillation counter was used.
Specifically, in these assays, a positively charged substrate is phosphorylated with a radiolabeled phosphate group from an ATP if the kinase is not inhibited by an inhibitor peptide. The positively charged substrate then is attracted to a negatively charged filter membrane, quantified with a scintillation counter, and compared to a 100% activity control.

splenic T cells = assay: Autologous mixed lymphocyte reaction (MLR) of splenic T cells from treated bleomycin mice; type: in vivo, mouse
Description: Recent studies highlighted a key role for T lymphocytes in bleomycin-induced fibrosis (Wilson, M. et al., The Journal of Experimental Medicine, 207(3): 535-552, 2010). […] Specifically, the ability of C57BL/6 purified antigen-presenting cells to induce proliferation in C57BL/6 T lymphocytes was examined in the assay.
C57-BL/6 mice were subjected to bleomycin injury at day 0. […] Splenic T cells were isolated and cultured alone or in the presence of autologous antigen presenting cells (APCs from C57-BL/6 mice) or stimulated with antibodies against CD3 (α-CD3) for 48 h. The cells then were radiolabeled with […] thymidine for 16 h and assessed for proliferation rates.
The viability of the T cells also was confirmed by stimulating the cells with antibodies against α-CD3, a polyclonal T cell activator. α-CD3 induced robust proliferation of the cells irrespective of the treatment group.

[2] = system: phospho-Thr^334-MAPKAPK2 (activated form of MK2); assay: Anti-phospho-Thr334-MAPKAPK2 staining of lung sections, bleomycin treatment model; type: in vivo, mouse; conditions: day 14-28
Description: C57-BL/6 mice were subjected to bleomycin injury at day 0. […] Original magnifications: 20×.
(§2) Briefly, C57-BL/6 mice were subjected to bleomycin injury at day 0. […] Formalin-fixed lung tissue sections were immunostained against phospho-Thr^334 MK2. Control staining was with biotinylated secondary IgG antibody. Streptavidin-conjugated horseradish peroxidase was used with 3,3′-diaminobenzidene as substrate and nuclei were counterstained with hematoxylin.

IL-6 = assay: Circulating inflammatory cytokines, bleomycin treatment model; type: in vivo, mouse; conditions: 24 hours after final administration
[3] = system: alpha-smooth muscle actin (α-SMA); assay: α-SMA immunostaining of lung sections, bleomycin treatment model; type: in vivo, mouse; conditions: 50 μg/kg/day IP or nebulizer, day 14-28
Description: as §2, with “C57-BL/6” for “Briefly, C57-BL/6”, “against α-SMA.” for “against phospho-Thr^334 MK2.”, “nuclei was” for “nuclei were”, “hematoxylin. Original magnifications: 20×” for “hematoxylin.”

[4] = system: primary lung fibroblasts from patients with IPF; assay: Matrigel invasion assay, human IPF fibroblasts; type: cell-based; conditions: MK2i treatment
Protocol: Fibroblasts are critical effector cells in mediating tissue remodeling. […] We have developed a novel model of progressive lung fibrosis based on a cancer metastasis model. […] We hypothesized that fibrotic fibroblasts acquire an invasive phenotype that is essential for progressive fibrogenesis and that CD44 has a critical role in regulating the process. We utilized an assay system in which fibroblasts are evaluated for their ability to spontaneously invade Matrigel, a composite matrix with basement membrane constituents. This assay has been used to analyze the metastatic potential of cancer cells (40).
We have hypothesized that the essential feature of IPF is the development of an invasive fibroblast phenotype that has developed a gene program that facilitates matrix invasion. To determine if the data obtained from the ASMA-HAS2 transgenic mouse model of severe, progressive and destructive fibrosis is relevant to human lung fibrosis, we isolated primary lung fibroblasts from patients with IPF and analyzed their invasive capacity. We found a striking increase in the invasive capacity of IPF fibroblasts compared to fibroblasts isolated from normal lung tissue (FIG. 34).

[5] = system: fibroblasts from human idiopathic pulmonary fibrosis (IPF) lung; assay: HA production of fibroblasts; type: cell-based
[6] = system: fibroblasts from bleomycin treated murine hyaluronan synthase 2 (mHAS2) lung; assay: HA production of fibroblasts; type: cell-based, mouse
[7] = system: bleomycin treated wild type (WT) mouse lung; assay: HA content in bleomycin treated mouse lung; conditions: in vivo
[8] = system: bleomycin-induced lung fibrosis in C57BL/6 mice; conditions: 37.5 μg/kg daily for 14 d from d14, inhaled or intra-peritoneal; cited from earlier work
mesothelial cells = conditions: cited from earlier work
c-RAF(h) = c-RAF(h) (Homo sapiens, UniProt P04049); assay: Kinase Profiling Assay; type: biochemical; conditions: peptide 100 μM
Procedure, shortened: as §1

PAK6(h) = PAK6(h) (Homo sapiens, UniProt Q9NQU5); assay: Kinase Profiling Assay; type: biochemical; conditions: peptide 100 μM
Procedure, shortened: as §1

CK1γ2(h) = CK1γ2(h) (Homo sapiens, UniProt P78368); assay: Kinase Profiling Assay; type: biochemical; conditions: peptide 100 μM
Procedure, shortened: as §1

Sequence of CK1γ1(h) (Q9HCP0 whole entry): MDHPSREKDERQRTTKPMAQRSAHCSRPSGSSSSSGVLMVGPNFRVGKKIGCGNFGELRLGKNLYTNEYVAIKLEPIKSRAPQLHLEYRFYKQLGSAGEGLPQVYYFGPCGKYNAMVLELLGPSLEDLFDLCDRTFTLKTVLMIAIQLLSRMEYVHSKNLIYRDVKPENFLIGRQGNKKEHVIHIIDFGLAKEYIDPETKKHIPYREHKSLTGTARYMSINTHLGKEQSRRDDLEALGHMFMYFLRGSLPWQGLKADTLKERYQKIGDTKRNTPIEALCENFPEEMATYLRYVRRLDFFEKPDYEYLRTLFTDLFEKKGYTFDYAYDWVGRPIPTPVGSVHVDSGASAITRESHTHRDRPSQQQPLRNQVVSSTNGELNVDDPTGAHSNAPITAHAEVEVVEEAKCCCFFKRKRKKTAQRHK
Sequence of PAK6(h) (Q9NQU5 whole entry): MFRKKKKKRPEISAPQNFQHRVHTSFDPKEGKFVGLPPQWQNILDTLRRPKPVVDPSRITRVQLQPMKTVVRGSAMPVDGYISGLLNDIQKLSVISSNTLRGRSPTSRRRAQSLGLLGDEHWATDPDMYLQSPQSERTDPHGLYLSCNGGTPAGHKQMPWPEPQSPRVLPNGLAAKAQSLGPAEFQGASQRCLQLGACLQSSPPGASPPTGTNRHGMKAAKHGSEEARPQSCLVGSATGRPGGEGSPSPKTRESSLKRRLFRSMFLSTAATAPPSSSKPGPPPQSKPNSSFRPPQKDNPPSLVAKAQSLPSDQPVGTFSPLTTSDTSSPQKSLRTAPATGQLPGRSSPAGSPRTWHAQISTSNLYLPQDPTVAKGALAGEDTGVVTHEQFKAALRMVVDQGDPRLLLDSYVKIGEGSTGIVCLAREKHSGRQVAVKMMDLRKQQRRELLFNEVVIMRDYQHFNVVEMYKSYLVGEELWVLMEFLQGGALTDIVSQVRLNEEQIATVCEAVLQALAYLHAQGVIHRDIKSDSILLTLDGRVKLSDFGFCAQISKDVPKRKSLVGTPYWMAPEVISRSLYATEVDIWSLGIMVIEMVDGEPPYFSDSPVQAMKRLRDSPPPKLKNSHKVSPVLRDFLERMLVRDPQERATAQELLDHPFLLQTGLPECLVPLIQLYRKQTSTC
Sequence of CK1γ2(h) (P78368 whole entry): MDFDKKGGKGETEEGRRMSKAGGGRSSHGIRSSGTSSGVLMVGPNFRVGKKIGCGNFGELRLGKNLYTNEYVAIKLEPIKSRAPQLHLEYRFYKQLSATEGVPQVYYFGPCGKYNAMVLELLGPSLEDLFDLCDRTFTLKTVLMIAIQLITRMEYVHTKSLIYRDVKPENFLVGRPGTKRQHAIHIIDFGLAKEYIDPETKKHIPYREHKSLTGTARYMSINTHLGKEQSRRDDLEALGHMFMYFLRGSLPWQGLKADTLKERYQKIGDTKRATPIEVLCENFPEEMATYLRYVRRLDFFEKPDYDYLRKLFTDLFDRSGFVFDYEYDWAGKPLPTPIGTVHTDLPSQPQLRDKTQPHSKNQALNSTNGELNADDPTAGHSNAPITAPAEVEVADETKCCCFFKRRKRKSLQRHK
Sequence of FGFR2(N549H)(h) (P21802 22-821 N549H): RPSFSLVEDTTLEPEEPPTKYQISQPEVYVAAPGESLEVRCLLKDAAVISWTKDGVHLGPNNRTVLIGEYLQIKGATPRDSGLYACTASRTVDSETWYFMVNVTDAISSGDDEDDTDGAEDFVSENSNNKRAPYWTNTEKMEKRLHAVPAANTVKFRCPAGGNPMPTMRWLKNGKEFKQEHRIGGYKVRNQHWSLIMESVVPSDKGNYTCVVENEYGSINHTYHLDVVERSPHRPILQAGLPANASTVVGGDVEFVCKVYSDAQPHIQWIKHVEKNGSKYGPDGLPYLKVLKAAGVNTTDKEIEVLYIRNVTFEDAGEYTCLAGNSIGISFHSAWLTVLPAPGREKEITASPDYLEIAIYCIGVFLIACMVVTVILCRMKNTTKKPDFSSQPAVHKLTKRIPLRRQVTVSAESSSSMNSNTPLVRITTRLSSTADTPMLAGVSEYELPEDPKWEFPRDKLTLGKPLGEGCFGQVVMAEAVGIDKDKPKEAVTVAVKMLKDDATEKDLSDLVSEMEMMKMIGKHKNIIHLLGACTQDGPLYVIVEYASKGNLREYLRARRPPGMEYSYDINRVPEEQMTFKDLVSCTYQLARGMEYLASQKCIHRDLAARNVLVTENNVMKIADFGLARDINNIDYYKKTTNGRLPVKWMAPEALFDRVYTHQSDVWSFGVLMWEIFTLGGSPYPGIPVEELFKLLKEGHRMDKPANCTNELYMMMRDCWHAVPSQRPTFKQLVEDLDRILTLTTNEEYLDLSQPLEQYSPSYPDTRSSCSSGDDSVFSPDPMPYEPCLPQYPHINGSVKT
Sequence of Plk1(h) (P53350 whole entry): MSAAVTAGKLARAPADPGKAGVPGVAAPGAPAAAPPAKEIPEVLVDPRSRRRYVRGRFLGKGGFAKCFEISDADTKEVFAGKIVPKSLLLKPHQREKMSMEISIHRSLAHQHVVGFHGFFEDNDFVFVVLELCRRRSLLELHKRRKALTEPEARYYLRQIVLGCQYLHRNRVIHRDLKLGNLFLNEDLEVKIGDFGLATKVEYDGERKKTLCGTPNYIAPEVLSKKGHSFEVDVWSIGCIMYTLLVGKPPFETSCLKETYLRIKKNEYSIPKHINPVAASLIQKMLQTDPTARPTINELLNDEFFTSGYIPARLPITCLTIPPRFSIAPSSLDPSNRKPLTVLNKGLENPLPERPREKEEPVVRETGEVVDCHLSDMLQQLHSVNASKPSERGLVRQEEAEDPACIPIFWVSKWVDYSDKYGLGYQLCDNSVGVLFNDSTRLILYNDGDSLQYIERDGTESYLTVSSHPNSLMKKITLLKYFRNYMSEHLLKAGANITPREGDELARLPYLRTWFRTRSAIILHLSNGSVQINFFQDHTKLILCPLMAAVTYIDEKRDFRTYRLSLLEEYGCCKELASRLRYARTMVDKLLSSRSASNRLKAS
T1 sequence (P49137 whole entry): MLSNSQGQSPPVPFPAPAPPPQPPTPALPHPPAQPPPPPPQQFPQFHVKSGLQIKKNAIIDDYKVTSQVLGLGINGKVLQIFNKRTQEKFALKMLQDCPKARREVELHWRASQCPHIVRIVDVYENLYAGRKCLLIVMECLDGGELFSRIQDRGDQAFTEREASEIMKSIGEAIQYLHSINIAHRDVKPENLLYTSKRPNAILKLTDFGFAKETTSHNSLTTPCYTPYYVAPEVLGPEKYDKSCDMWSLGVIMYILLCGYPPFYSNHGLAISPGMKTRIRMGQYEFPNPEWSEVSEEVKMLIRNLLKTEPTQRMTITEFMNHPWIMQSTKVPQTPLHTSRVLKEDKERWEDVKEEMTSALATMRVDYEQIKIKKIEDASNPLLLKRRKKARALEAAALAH
Sequence of CLK2(h) (P49760 whole entry): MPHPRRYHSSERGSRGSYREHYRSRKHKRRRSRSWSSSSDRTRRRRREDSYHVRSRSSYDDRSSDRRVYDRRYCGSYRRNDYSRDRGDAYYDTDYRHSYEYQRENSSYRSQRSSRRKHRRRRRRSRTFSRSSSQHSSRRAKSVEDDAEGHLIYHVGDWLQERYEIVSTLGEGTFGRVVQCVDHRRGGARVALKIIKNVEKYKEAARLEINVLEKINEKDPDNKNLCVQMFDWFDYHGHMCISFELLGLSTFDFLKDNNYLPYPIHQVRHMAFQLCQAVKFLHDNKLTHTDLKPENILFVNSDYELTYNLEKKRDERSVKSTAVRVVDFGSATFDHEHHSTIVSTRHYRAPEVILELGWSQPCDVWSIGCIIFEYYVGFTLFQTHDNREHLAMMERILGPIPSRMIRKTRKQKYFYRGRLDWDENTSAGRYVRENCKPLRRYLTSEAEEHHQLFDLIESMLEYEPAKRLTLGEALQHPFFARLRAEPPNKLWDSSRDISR

In the case of “YARAAARQARAKALNRQLGVA (Mammal) [MMI-0200]”, the “% activity” value (CK1γ1(h)) is reported as 98%, the “% activity” value (CLK2(h)) is reported as 97% and the “% activity” value (Plk1(h)) is reported as 128%.
In the case of YARAAARQARAKALARQLGVAA [MMI-0100], the “% activity” value (FGFR2(N549H)(h)) is reported as 95%, the IC50 [1] is reported as 22 µM and the “toxicity (splenic T cell response to α-CD3)” value (splenic T cells; 50 μg/kg/day) is reported as “no toxicity”. For the same sequence, the systemic distribution (splenic T cells; nebulized delivery, inferred from lack of splenic T cell response) was “little systemic distribution”, the “phospho-Thr^334-MAPKAPK2 staining” value ([2]; intraperitoneal 50 μg/kg daily) was “decreased” and the “phospho-Thr^334-MAPKAPK2 staining” value ([2]; nebulized 50 μg/kg daily) was “decreased”. The “plasma level of IL-6” value (IL-6; intraperitoneal) was “significantly reduced”, the “plasma level of IL-6” value (IL-6; nebulized) was “significantly reduced” and the “level of α-SMA in lungs vs untreated bleomycin-injured lungs” value [3] was “significantly attenuated”. For the same sequence, the “invasive capacity of IPF fibroblasts” value [4] was “able to inhibit”, the HA production [5] was “reduced” and the “hyaluronan (HA) production” value [6] was “reduced”. The “hyaluronan (HA) content in lung” value [7] was “reduced”, the “progression of fibrosis (collagen deposition, myofibroblast differentiation, activated MK2 expression)” value [8] was “inhibited” and the TFG-β-induced cytokine release (mesothelial cells) was “inhibits”.
With “HRRIKAWLKKIKALARQLGVAA (Mammal) [MMI-0500]” the “% activity” value (c-RAF(h)) was 19%.
With KAFAKLAARLYRKALARQLGVAA [MMI-0400] the “% activity” value (PAK6(h)) was 100%.
In the case of FAKLAARLYRKALARQLGVAA [MMI-0300], the “% activity” value (CK1γ2(h)) is reported as 123%.
